Data from PMC5601737, “Potential independent action of sigma receptor ligands through inhibition of the Kv2.1 channel” (Oncotarget, 2017).

Biological target: T1, Kv2.1 (Rattus norvegicus, UniProt P15387)
T1 construct: gene Kcnb1
T1 sequence (P15387 1-857): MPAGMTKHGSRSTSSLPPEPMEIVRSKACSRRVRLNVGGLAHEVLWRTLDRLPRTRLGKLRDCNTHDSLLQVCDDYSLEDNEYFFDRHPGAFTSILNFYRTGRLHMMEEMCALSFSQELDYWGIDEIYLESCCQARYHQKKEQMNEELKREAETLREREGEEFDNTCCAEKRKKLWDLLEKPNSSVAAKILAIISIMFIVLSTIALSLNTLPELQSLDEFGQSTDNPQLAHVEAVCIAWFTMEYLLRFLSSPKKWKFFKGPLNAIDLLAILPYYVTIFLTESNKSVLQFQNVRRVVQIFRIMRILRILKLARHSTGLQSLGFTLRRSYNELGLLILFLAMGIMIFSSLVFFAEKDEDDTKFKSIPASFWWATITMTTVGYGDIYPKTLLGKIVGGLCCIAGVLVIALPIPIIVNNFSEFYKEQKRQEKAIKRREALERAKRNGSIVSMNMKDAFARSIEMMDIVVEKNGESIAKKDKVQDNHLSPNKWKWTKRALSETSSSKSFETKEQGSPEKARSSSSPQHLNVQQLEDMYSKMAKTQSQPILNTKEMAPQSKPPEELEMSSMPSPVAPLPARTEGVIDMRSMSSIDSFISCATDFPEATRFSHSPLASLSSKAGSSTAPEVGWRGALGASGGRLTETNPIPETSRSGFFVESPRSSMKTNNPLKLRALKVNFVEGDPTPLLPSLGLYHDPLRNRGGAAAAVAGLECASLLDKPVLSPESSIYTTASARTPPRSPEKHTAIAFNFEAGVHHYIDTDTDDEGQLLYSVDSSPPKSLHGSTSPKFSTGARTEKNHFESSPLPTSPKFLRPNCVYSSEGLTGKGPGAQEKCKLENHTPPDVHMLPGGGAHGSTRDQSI
Assay: whole-cell patch clamp, HEK293 stably expressing Kv2.[…], sigma-1 receptor knockout; […] inhibition at […]
Format: cell-based

inhibition at 10 µM: 65%
SMILES: COc1cccc2c1CCCC2CCCN1CCN(C2CCCCC2)CC1 (stereo not shown) [PB28]
